Here are results for 21 compounds from patent US20190177284A1, “TETRAZOLYL-CONTAINING CYCLOPROPANECARBOXAMIDES” (Bayer Pharma Aktiengesellschaft, priority 2017, published 2019).

This test addresses T1, human Bradykinin B1 receptor (Homo sapiens, UniProt P46663).
T1 construct: host or cells: CHO-K1
T1 sequence (P46663 1-353): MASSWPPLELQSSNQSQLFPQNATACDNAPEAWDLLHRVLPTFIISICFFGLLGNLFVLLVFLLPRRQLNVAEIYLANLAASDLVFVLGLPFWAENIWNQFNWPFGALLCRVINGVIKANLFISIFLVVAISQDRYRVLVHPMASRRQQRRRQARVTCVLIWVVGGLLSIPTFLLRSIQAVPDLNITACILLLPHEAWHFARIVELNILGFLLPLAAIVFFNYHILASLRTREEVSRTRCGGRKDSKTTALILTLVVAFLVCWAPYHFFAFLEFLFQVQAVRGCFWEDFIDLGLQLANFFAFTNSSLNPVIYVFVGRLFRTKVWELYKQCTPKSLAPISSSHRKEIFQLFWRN
Put plainly: Calcium flux Assay (FLIPR) with cells expressing human Bradykinin B1 receptor (hB1). It is filed as cell-based. The following applies: absence of 0.1% BSA in assay buffer; CHO-K1 cell line expressing human B1 receptor; agonist Lys-(Des-Arg)-Bradykinin; read-out: hB1 free IC50. The method, then:
The potency to inhibit the Bradykinin B1 receptor was determined for the compound examples of this invention in a cell-based fluorescent calcium-mobilisation assay. The assay measures the ability of compound examples to inhibit Bradykinin B1 receptor agonist-induced increase of intracellular free Ca^2+ in the cell line expressing Bradykinin B1 receptor. Specifically, calcium indicator-loaded cells are pre-incubated in the absence or presence of different concentrations of compound examples followed by the stimulation with a selective Bradykinin B1 receptor agonist peptide. The change of the intracellular Ca^2+ concentration is monitored with a fluorescent plate reader FLIPR^TETRA®
Calcium flux Assays (FLIPR) with cells expressing human Bradykinin B1 receptor (hB1) Calcium flux Assay (FLIPR) with recombinant cells for Bradykinin B1 receptor antagonist, either in the presence (hB1 IC50) or absence (hB1 free IC50) of 0.1% Bovine Serum Albumin (BSA) in assay buffer.
CHO—K1 cell line expressing human B1 receptor was purchased from Euroscreen (Gosselies, Belgium, with reference name hB1-D1). The cells were grown in Nutrient Mixture Ham's F12 (Sigma) containing 10% Foetal bovine serum (Sigma) and 400 μg/mL G418 (Sigma), 5 μg/mL puromycin (Sigma).
For the calcium flux assay, 80% confluent cells were detached from the culture vessels with Versene (Gibco), and seeded into 384-well plates (Cell binding Surface; Corning, N.Y.; #3683) at a density of 15,000 cells per well. Cells were seeded in a volume of 50 μL in medium without antibiotics and incubated overnight in a humidified atmosphere with 5% CO2 at 37° C. […] The calcium indicator loaded cells were incubated at 37° C. for 2 hrs. Extracellular dye was then removed and each well was filled with 45 μL of assay buffer. Cell plates were kept in dark until used. Example compounds were assayed at 8 concentrations in triplicate. Serial 10-fold dilutions in 100% DMSO were made at a 100-times higher concentration than the final concentration, and then diluted 1:10 in assay buffer. 5 μL of each diluted compound was added to the well of cell plates (yielding final concentration with 1% DMSO), and incubated for 30 min at 28° C. before the addition of B1 receptor agonist on the FLIPR instrument.
Agonist plates contained the agonist Lys-(Des-Arg)-Bradykinin (Bachem, Brackley) at 3.5×EC90 in assay buffer with 1% DMSO. The addition of agonist 20 μl per well to the assay plate was carried out on the FLIPR instrument while continuously monitoring Ca^2+-dependent fluorescence at 538 nm. A peptide antagonist Lys-(Des-Arg-Leu)-Bradykinin (Bachem, Brackley) at 20 μM was used to determine the full inhibition as control.
Peak fluorescence was used to determine the response to agonist obtained at each concentration of example compound by the following equation:
% Response=100*(RFU(example compound)−RFU(control))/(RFU(DMSO)−RFU(control)) • RFU means relative fluorescence units. • Control means full inhibition by the peptide antagonist Lys-(Des-Arg-Leu)-Bradykinin at 20
The response values were plotted against the logarithm of the example compound concentrations. The example compounds were tested in triplicates per plate and mean values were plotted in Excel XLfit to determine IC50 values, percentage of maximal inhibition and the Hill slopes.
IC50 values of example compounds in Calcium flux Assay (FLIPR) as shown in table 1 were determined according to the protocol described above in the absence of 0.1% BSA in assay buffer.
On to `O=C(OC1CCCC1)c1ccc(NC(=O)C2(c3ccc(OC(F)(F)F)cc3F)CC2)cc1-c1nnn[nH]1` [Example 7, Cyclopentyl 4-[({1-[2-fluoro-4-(trifluoromethoxy)phenyl]cyclopropyl}carbonyl)amino]-2-(1H-tetrazol-5-yl)benzoate], for which the IC50 worked out at 5 nM.

On to `O=C(NC1CCCC1)c1ccc(NC(=O)C2(c3ccc(C(F)(F)F)cc3F)CC2)cc1-c1nnn[nH]1` [Example 39, N-cyclopentyl-4-[({1-[2-fluoro-4-(trifluoromethyl)phenyl]cyclopropyl}carbonyl)amino]-2-(1H-tetrazol-5-yl)benzamide], for which the IC50 was 34 nM.

`CN(CC1CCOCC1)C(=O)c1ccc(NC(=O)C2(c3ccc(C(F)(F)F)cc3F)CC2)cc1-c1nnn[nH]1` [Example 49, 4-[({1-[2-Fluoro-4-(trifluoromethyl)phenyl]cyclopropyl}carbonyl)amino]-N-methyl-N-(tetrahydro-2H-pyran-4-ylmethyl)-2-(1H-tetrazol-5-yl)benzamide]: the IC50 came to 1800 nM.

In the case of `Cc1cc(NC(=O)C2(c3ccc(C(F)(F)F)cc3F)CC2)cc(-c2nnn[nH]2)c1C(=O)O[C@H]1CCOC1` [Example 65, (3S)-tetrahydrofuran-3-yl 4-[({1-[2-fluoro-4-(trifluoromethyl)phenyl]cyclopropyl}carbonyl)amino]-2-methyl-6-(1H-tetrazol-5-yl)benzoate], the IC50 amounted to 62 nM.

As to `COCC(C)OC(=O)c1ccc(NC(=O)C2(c3ccc(C(F)(F)F)cc3F)CC2)cc1-c1nnn[nH]1` (racemic) [Example 32, 1-Methoxypropan-2-yl 4-[({1-[2-fluoro-4-(trifluoromethyl)phenyl]cyclopropyl}carbonyl)amino]-2-(1H-tetrazol-5-yl)benzoate], the IC50 came out at 13 nM.

Turning to `CC[C@H](C)OC(=O)c1ccc(NC(=O)C2(c3ccc(OC(F)(F)F)cc3F)CC2)cc1-c1nnn[nH]1` [Example 27, (2S)-Butan-2-yl 4-[({1-[2-fluoro-4-(trifluoromethoxy)phenyl]cyclopropyl}carbonyl)amino]-2-(1H-tetrazol-5-yl)benzoate], the IC50 was determined as 2 nM.

Take `O=C(OCC1CCOCC1)c1ccc(NC(=O)C2(c3ccc(C(F)(F)F)cc3F)CC2)cc1-c1nnn[nH]1` [Example 22, Tetrahydro-2H-pyran-4-ylmethyl 4-[({1-[2-fluoro-4-(trifluoromethyl)phenyl]cyclopropyl}carbonyl)amino]-2-(1H-tetrazol-5-yl)benzoate]: the IC50 is 18 nM.

In the case of `CN(CC1CCCCC1)C(=O)c1ccc(NC(=O)C2(c3ccc(C(F)(F)F)cc3F)CC2)cc1-c1nnn[nH]1` [Example 12, N-(cyclohexylmethyl)-4-[({1-[2-fluoro-4-(trifluoromethyl)phenyl]cyclopropyl}carbonyl)amino]-N-methyl-2-(1H-tetrazol-5-yl)benzamide], the IC50 came to 412 nM.

In the case of `O=C(NCC1CCOCC1)c1ccc(NC(=O)C2(c3ccc(C(F)(F)F)cc3F)CC2)cc1-c1nnn[nH]1` [Example 48, 4-[({1-[2-Fluoro-4-(trifluoromethyl)phenyl]cyclopropyl}carbonyl)amino]-N-(tetrahydro-2H-pyran-4-ylmethyl)-2-(1H-tetrazol-5-yl)benzamide], the IC50 turned out to be 60 nM.

As to `CCOC(=O)c1c(F)cc(NC(=O)C2(c3ccc(C(F)(F)F)cc3F)CC2)cc1-c1nnn[nH]1` [Example 59, Ethyl 2-fluoro-4-[({1-[2-fluoro-4-(trifluoromethyl)phenyl]cyclopropyl}-carbonyl)amino]-6-(1H-tetrazol-5-yl)benzoate], the IC50 turned out to be 5 nM.

Turning to `O=C(N[C@@H]1CCOC1)c1ccc(NC(=O)C2(c3ccc(C(F)(F)F)cc3F)CC2)cc1-c1nnn[nH]1` [Example 53, 4-[({1-[2-Fluoro-4-(trifluoromethyl)phenyl]cyclopropyl}carbonyl)amino]-N-[(3R)-tetrahydrofuran-3-yl]-2-(1H-tetrazol-5-yl)benzamide], the IC50 came to 3610 nM.

Regarding `O=C(O[C@H]1CCOC1)c1ccc(NC(=O)C2(c3ccc(C(F)(F)F)cc3F)CC2)cc1-c1nnn[nH]1` [Example 19, (3S)-Tetrahydrofuran-3-yl 4-[({1-[2-fluoro-4-(trifluoromethyl)phenyl]cyclopropyl}carbonyl)amino]-2-(1H-tetrazol-5-yl)benzoate], the IC50 was found to be 13 nM.

For `CC[C@H](C)OC(=O)c1ccc(NC(=O)C2(c3ccc(C(F)(F)F)cc3F)CC2)cc1-c1nnn[nH]1` [Example 25, (2S)-Butan-2-yl 4-[({1-[2-fluoro-4-(trifluoromethyl)phenyl]cyclopropyl}carbonyl)amino]-2-(1H-tetrazol-5-yl)benzoate], the concentration for half-maximal inhibition (IC50) turned out to be 3 nM.

As for `O=C(c1ccc(NC(=O)C2(c3cccc(Cl)c3)CC2)cc1-c1nnn[nH]1)N1CCCCC1` [Example 33, 1-(3-Chlorophenyl)-N-[4-(piperidin-1-ylcarbonyl)-3-(1H-tetrazol-5-yl)phenyl]cyclopropanecarboxamide], the IC50 came to 633 nM.

Regarding `O=C(NC1CCCCC1)c1ccc(NC(=O)C2(c3ccc(C(F)(F)F)cc3F)CC2)cc1-c1nnn[nH]1` [Example 42, N-cyclohexyl-4-[({1-[2-fluoro-4-(trifluoromethyl)phenyl]cyclopropyl}carbonyl)amino]-2-(1H-tetrazol-5-yl)benzamide], the concentration for half-maximal inhibition (IC50) was found to be 34 nM.

On to `O=C(OC1CCCCC1)c1ccc(NC(=O)C2(c3ccc(C(F)(F)F)cc3F)CC2)cc1-c1nnn[nH]1` [Example 16, Cyclohexyl 4-[({1-[2-fluoro-4-(trifluoromethyl)phenyl]cyclopropyl}carbonyl)amino]-2-(1H-tetrazol-5-yl)benzoate], for which the IC50 came out at 5 nM.

For the compound `Cc1ccc(NC(=O)c2c(F)cc(NC(=O)C3(c4ccc(C(F)(F)F)cc4F)CC3)cc2-c2nnn[nH]2)nc1` [Example 63, 2-Fluoro-4-[({1-[2-fluoro-4-(trifluoromethyl)phenyl]cyclopropyl}carbonyl)amino]-N-(5-methylpyridin-2-yl)-6-(1H-tetrazol-5-yl)benzamide], the IC50 was determined as 51 nM.

For the compound `O=C(OC1CCOC1)c1ccc(NC(=O)C2(c3ccc(C(F)(F)F)cc3F)CC2)cc1-c1nnn[nH]1` (racemic) [Example 18, Tetrahydrofuran-3-yl 4-[({1-[2-fluoro-4-(trifluoromethyl)phenyl]cyclopropyl}carbonyl)amino]-2-(1H-tetrazol-5-yl)benzoate], the IC50 was 7 nM.

Turning to `CN(C(=O)c1ccc(NC(=O)C2(c3ccc(C(F)(F)F)cc3F)CC2)cc1-c1nnn[nH]1)C1CCOCC1` [Example 47, 4-[({1-[2-Fluoro-4-(trifluoromethyl)phenyl]cyclopropyl}carbonyl)amino]-N-methyl-N-(tetrahydro-2H-pyran-4-yl)-2-(1H-tetrazol-5-yl)benzamide], the IC50 was found to be 445 nM.

Regarding `COC1CCN(C(=O)c2ccc(NC(=O)C3(c4ccc(C(F)(F)F)cc4F)CC3)cc2-c2nnn[nH]2)CC1` [Example 36, 1-[2-Fluoro-4-(trifluoromethyl)phenyl]-N-{4-[(4-methoxypiperidin-1-yl)carbonyl]-3-(1H-tetrazol-5-yl)phenyl}cyclopropanecarboxamide], the IC50 amounted to 523 nM.

For `O=C(NCC1CCCCC1)c1ccc(NC(=O)C2(c3ccc(C(F)(F)F)cc3F)CC2)cc1-c1nnn[nH]1` [Example 44, N-(cyclohexylmethyl)-4-[({1-[2-fluoro-4-(trifluoromethyl)phenyl]cyclopropyl}carbonyl)amino]-2-(1H-tetrazol-5-yl)benzamide], the IC50 came to 13 nM.
